Consider 24 compounds from PubChem BioAssay AID192 (DTP/NCI, 2004).

In the experiment the test system is BDF1 mice, B16 melanoma ip, median survival T/C. Description: NCI In Vivo Anticancer Drug Screen. Data for tumor model B16 Melanoma (intraperitoneal) in B6D2F1 (BDF1) mice. The note with it: endpoint: median survival time, higher = longer survival. In a few lines: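 Transplantable tumor model; survival or tumor size measured; reported as T/C, treated over vehicle control.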

Where [1] appears, read: dose: 6.25 mg/kg/injection, schedule: Q01DX009 (ip), vehicle: saline with Tween-80.
[2] abbreviates: dose: 12.5 mg/kg/injection, schedule: Q01DX009 (ip), vehicle: saline with Tween-80.
Where [3] appears, read: dose: 12.5 mg/kg/injection, schedule: Q04DX003 (ip), vehicle: saline with Tween-80.
The mark [4] stands for this setting: dose: 25.0 mg/kg/injection, schedule: Q01DX009 (ip), vehicle: saline with Tween-80.
Where [5] appears, read: dose: 25.0 mg/kg/injection, schedule: Q04DX003 (ip), vehicle: saline with Tween-80.
Where [6] appears, read: dose: 6.25 mg/kg/injection, schedule: Q01DX009 (ip), vehicle: saline.
The mark [7] stands for this setting: dose: 12.5 mg/kg/injection, schedule: Q01DX009 (ip), vehicle: saline.
Where [8] appears, read: dose: 100.0 mg/kg/injection, schedule: Q01DX009 (ip), vehicle: Klucel (hydroxypropylcellulose) (HPC).
The mark [9] stands for this setting: dose: 400.0 mg/kg/injection, schedule: Q01DX009 (ip), vehicle: Klucel (hydroxypropylcellulose) (HPC).
[10] abbreviates: dose: 100.0 mg/kg/injection, schedule: Q04DX003 (ip), vehicle: Klucel (hydroxypropylcellulose) (HPC).
Setting [11] is: dose: 200.0 mg/kg/injection, schedule: Q04DX003 (ip), vehicle: Klucel (hydroxypropylcellulose) (HPC).
Where [12] appears, read: dose: 3.12 mg/kg/injection, schedule: Q01DX009 (ip), vehicle: Klucel (hydroxypropylcellulose) (HPC).
Where [13] appears, read: dose: 12.5 mg/kg/injection, schedule: Q01DX009 (ip), vehicle: Klucel (hydroxypropylcellulose) (HPC).
The mark [14] stands for this setting: dose: 50.0 mg/kg/injection, schedule: Q01DX009 (ip), vehicle: Klucel (hydroxypropylcellulose) (HPC).
[15] abbreviates: dose: 200.0 mg/kg/injection, schedule: Q01DX009 (ip), vehicle: Klucel (hydroxypropylcellulose) (HPC).
Setting [16] is: dose: 6.25 mg/kg/injection, schedule: Q01DX009 (ip), vehicle: Klucel (hydroxypropylcellulose) (HPC).
[17] abbreviates: dose: 25.0 mg/kg/injection, schedule: Q01DX009 (ip), vehicle: Klucel (hydroxypropylcellulose) (HPC).
[18] abbreviates: dose: 25.0 mg/kg/injection, schedule: Q01DX009 (ip), vehicle: saline.
Setting [19] is: dose: 50.0 mg/kg/injection, schedule: Q01DX009 (ip), vehicle: saline with Tween-80.
[20] abbreviates: dose: 100.0 mg/kg/injection, schedule: Q01DX009 (ip), vehicle: saline with Tween-80.
[21] abbreviates: dose: 200.0 mg/kg/injection, schedule: Q01DX009 (ip), vehicle: saline with Tween-80.
Setting [22] is: dose: 400.0 mg/kg/injection, schedule: Q01DX009 (ip), vehicle: saline with Tween-80.

SMILES strings stand for the structures. Where “and” joins values, the source holds several entries; their conditions need not be identical. Equal values may be shown once. Inconclusive results and toxic doses are left out. Square brackets hold non-standard residues; d marks the D form. Peptide text beside a SMILES is read from it. * marks the point of attachment. ξ: configuration not given here. ξF = NC(Cc1ccccc1)C(=O)O; Bz = O=C(c1ccccc1)*

Regarding `COC(=O)C(CCCCN=Cc1ccccc1O)N=Cc1ccccc1O.[Ni]` (centres undefined), the T/C is 100 % of control under setting [1]; 90 % of control under setting [2]; 95 % of control under setting [3]; 95 % of control under setting [4]; 93 % of control under setting [5].
`Nc1nc(=O)n(C2OC(CO)C(O)C2O)cc1F` (centres undefined): the T/C under setting [6] is 116 % of control; the T/C (dose: 9.0 mg/kg/injection, schedule: Q01DX009 (ip), vehicle: saline) is 109 % of control; the T/C under setting [7] was 96 % of control; the T/C (dose: 18.0 mg/kg/injection, schedule: Q01DX009 (ip), vehicle: saline) was 116 % of control; the T/C (dose: 24.0 mg/kg/injection, schedule: Q01DX009 (ip), vehicle: saline) was 118 % of control; the T/C (dose: 54.0 mg/kg/injection, schedule: Q01DX009 (ip), vehicle: saline) is 103 % of control.
As to `O=CN(O)CC(=O)O`, the T/C is, setting by setting: (dose: 100.0 mg/kg/injection, schedule: Q04DX003 (ip), vehicle: saline) 97 % of control; (dose: 200.0 mg/kg/injection, schedule: Q04DX003 (ip), vehicle: saline) 100 % of control; (dose: 400.0 mg/kg/injection, schedule: Q04DX003 (ip), vehicle: saline) 100 % of control.
As for `Cl[C](Cl)(Cl)[Hg][c]1ccccc1`, the T/C was 91 % of control (dose: 0.19 mg/kg/injection, schedule: Q01DX009 (ip), vehicle: saline); 92 % of control (dose: 0.38 mg/kg/injection, schedule: Q01DX009 (ip), vehicle: saline); 89 % of control (dose: 1.5 mg/kg/injection, schedule: Q01DX009 (ip), vehicle: saline).
Regarding `C=Cc1cc(OC)c2c(c1)c(=O)oc1c2cc(OC)c2c(O)ccc(C3OC(C(C)O)C(O)C3O)c21` (centres undefined), the T/C runs as follows: under setting [8], 159 % of control; under setting [9], 113 % of control.
For `CN(C)CCCN=Cc1ccc(O)cc1O.CN(C)CCCN=Cc1ccc(O)cc1O.[Ni+2]`, the T/C by setting is: under setting [1], 95 % of control; under setting [2], 95 % of control; under setting [3], 117 % of control; under setting [4], 92 % of control; under setting [5], 86 % of control.
For `CN(C)C(=S)S/C=C\C(=O)O`, the T/C reads like this: (dose: 25.0 mg/kg/injection, schedule: Q04DX003 (ip), vehicle: Klucel (hydroxypropylcellulose) (HPC)) 104 % of control; (dose: 50.0 mg/kg/injection, schedule: Q04DX003 (ip), vehicle: Klucel (hydroxypropylcellulose) (HPC)) 96 % of control; under setting [10], 92 % of control; under setting [11], 113 % of control.
`O=C1CN=C(c2ccccc2)c2cc([N+](=O)[O-])ccc2N1`: the T/C reads like this: (dose: 0.02 mg/kg/injection, schedule: Q01DX009 (ip), vehicle: Klucel (hydroxypropylcellulose) (HPC)) 100 % of control; (dose: 0.04 mg/kg/injection, schedule: Q01DX009 (ip), vehicle: Klucel (hydroxypropylcellulose) (HPC)) 103 % of control; (dose: 0.09 mg/kg/injection, schedule: Q01DX009 (ip), vehicle: Klucel (hydroxypropylcellulose) (HPC)) 105 % of control; (dose: 0.19 mg/kg/injection, schedule: Q01DX009 (ip), vehicle: Klucel (hydroxypropylcellulose) (HPC)) 101 % of control; (dose: 0.39 mg/kg/injection, schedule: Q01DX009 (ip), vehicle: Klucel (hydroxypropylcellulose) (HPC)) 98 % of control; under setting [12], 86 % of control. Also, the T/C runs as follows: under setting [13], 90 % of control; under setting [14], 99 % of control; under setting [8], 86 % of control; under setting [9], 86 % of control.
With `COc1cc2c(cc1OC)C(CNC(=O)/C=C/c1ccccc1)C2` (centres undefined), the T/C reads like this: under setting [8], 122 % of control; under setting [15], 97 % of control; under setting [9], 94 % of control.
Turning to `Cc1ccc(NS(=O)(=O)c2ccccc2)c(C)c1`, the T/C was 86 % of control (dose: 75.0 mg/kg/injection, schedule: Q01DX009 (ip), vehicle: Klucel (hydroxypropylcellulose) (HPC)); 87 % of control (dose: 150.0 mg/kg/injection, schedule: Q01DX009 (ip), vehicle: Klucel (hydroxypropylcellulose) (HPC)); 92 % of control (dose: 300.0 mg/kg/injection, schedule: Q01DX009 (ip), vehicle: Klucel (hydroxypropylcellulose) (HPC)).
Take `Cc1cccc(C)c1N.[C-]#[O+].[C-]#[O+].[C-]#[O+].[Cr]`: the T/C is 103 % of control under setting [16]; 100 % of control under setting [13]; 100 % of control and 112 % of control under setting [17].
`ClCCOC1COC(OCCCl)CO1` (centres undefined): the T/C under setting [12] is 103 % of control; the T/C under setting [16] is 98 % of control; the T/C under setting [13] was 93 % of control; the T/C under setting [17] is 103 % of control; the T/C under setting [14] was 96 % of control; the T/C under setting [8] was 98 % of control. In addition, the T/C under setting [15] was 100 % of control.
Turning to `O=[N+]([O-])c1ccc(Oc2cc(Cl)c(Cl)cc2Cl)c([N+](=O)[O-])c1`, the T/C reads like this: under setting [17], 107 % of control; under setting [14], 106 % of control; under setting [8], 99 % of control.
`CN(C)CCN1C(=O)CC(c2ccccc2)Sc2ccccc21` (centres undefined): the T/C is 115 % of control (dose: 3.12 mg/kg/injection, schedule: Q01DX009 (ip), vehicle: saline); 112 % of control under setting [6]; 107 % of control under setting [7]; 97 % of control under setting [18].
With `O=C(Nc1ccccc1)c1ccc(Cl)c([N+](=O)[O-])c1`, the T/C by setting is: under setting [4], 113 % of control; under setting [19], 111 % of control; under setting [20], 106 % of control.
With `CCOC(=O)C(C)(C)Oc1ccc(Cl)cc1`, the T/C is 97 % of control and 113 % of control under setting [19]; 88 % of control and 113 % of control under setting [20]; 102 % of control under setting [21].
For `CC(=O)/C(C)=C\c1ccccc1`, the T/C was 102 % of control under setting [20], 95 % of control under setting [21] and 86 % of control under setting [22].
Turning to `O=C(CNC(=O)c1ccccc1)NCC(=O)NC(Cc1ccccc1)C(=O)O` (stereo not drawn) (Bz-Gly-Gly-[ξF]-OH), the T/C is, setting by setting: under setting [19], 90 % of control; under setting [20], 87 % of control; under setting [21], 90 % of control.
In the case of `CCc1cccc[n+]1[O-]`, the T/C is, setting by setting: under setting [22], 96 % of control; (dose: 600.0 mg/kg/injection, schedule: Q01DX009 (ip), vehicle: saline with Tween-80) 96 % of control.
Turning to `O=C1OC(c2ccc([N+](=O)[O-])cc2)=N/C1=C\c1ccc(Cl)cc1`, the T/C reads like this: under setting [17], 102 % of control; under setting [14], 86 % of control.
Turning to `COc1ccc(/C=C(\NC(C)=O)C(=O)O)cc1`, the T/C runs as follows: under setting [10], 97 % of control; under setting [11], 105 % of control; (dose: 400.0 mg/kg/injection, schedule: Q04DX003 (ip), vehicle: Klucel (hydroxypropylcellulose) (HPC)) 91 % of control.
On to `CCNC(C)(C)C(SSSC(c1ccc(Cl)cc1)C(C)(C)NCC)c1ccc(Cl)cc1` (centres undefined), for which the T/C is, setting by setting: under setting [16], 108 % of control; under setting [13], 94 % of control; under setting [17], 89 % of control and 94 % of control.
Regarding `O=N[O-].[Co].[NH2-].[NH2-].[NH2-].[NH2-].[NH2-]`, the T/C reads like this: under setting [7], 90 % of control; (dose: 12.5 mg/kg/injection, schedule: Q04DX003 (ip), vehicle: saline) 107 % of control; under setting [18], 97 % of control; (dose: 25.0 mg/kg/injection, schedule: Q04DX003 (ip), vehicle: saline) 105 % of control; (dose: 50.0 mg/kg/injection, schedule: Q01DX009 (ip), vehicle: saline) 100 % of control; (dose: 50.0 mg/kg/injection, schedule: Q04DX003 (ip), vehicle: saline) 100 % of control.
With `O=C1NC(c2ccccc2)(c2ccccc2)C(=O)N1SC(Cl)(Cl)Cl`, the T/C was 106 % of control under setting [12]; 92 % of control under setting [16]; 103 % of control under setting [13]; 97 % of control under setting [17]; 91 % of control under setting [14].
